Data published in ChEMBL document CHEMBL3774314, “Ammonium tetrathiomolybdate as a water-soluble and slow-release hydrogen sulfide donor” (Bioorg Med Chem Lett, 2016).
The source made the active and inactive calls. The rule behind the calls is not given here.

Legend:
[1] = Induction of Hydrogen sulfide production at pH 5 to 8 measured upto 15 hrs by UV-vis method based zinc-sulfide precipitation based methylene blue Method; type: physicochemical; conditions: pH 5, 15 h
[2] = system: HaCaT; experiment: Toxicity in human HaCaT cells assessed as H2O2-induced decrease in cell viability at 400 uM after 1 hr by CCK8 assay; type: cell-based
[3] = system: HaCaT; experiment: Effect on mitochondrial membrane potential in human HaCaT cells after 1 hr by Rhodamine 123 staining based fluorescence assay; type: ADME, cell-based
[4] = system: HaCaT; experiment: Cytoprotective activity in human HaCaT cells assessed as inhibition of H2O2-induced decrease in LDH release at 200 uM; type: functional, cell-based
[5] = system: HaCaT; experiment: Cytoprotective activity in human HaCaT cells assessed as inhibition of H2O2-induced decrease in cell viability at 50 to 200 uM after 1 hr by CCK8 assay; type: functional, cell-based
[6] = system: HaCaT; experiment: Cytoprotective in human HaCaT cells assessed as inhibition of H2O2-induced decrease in mitochondrial membrane potential at 200 uM preincubated for 1 hr followed by H2O2 addition by Rhodamine 123 staining based fluorescence assay; type: functional, cell-based

For “TIOMOLIBDATE DIAMMONIUM [listing 1 of 2 here]”, the Activity [1] was “Active”, the Activity [2] was “Toxic” and the Activity [3] was “Non-toxic”.

For “TIOMOLIBDATE DIAMMONIUM [listing 2 of 2 here]”, the Activity [4] was “Active”, the Activity [5] was “Active” and the Activity [6] was “Active”.
